The source of these data is US20240024216A1, “METHODS AND MATERIALS FOR TREATING HAIR LOSS” (The Penn State Research Foundation, priority 2021, published 2024).

Data set [1] deals with C57BL/6 mice. The experiment in a line: Hair regrowth after dorsal hair removal in mice. It is filed as in vivo. On the procedure:
Wild-type C57BL/6 mice (7-8 weeks old) were placed in the lateral decubitus position on a sterile paper sheet after anesthesia using intraperitoneal injection of ketamine (60 mg/kg) and xylazine (4 mg/kg). Sterile surgical instruments (autoclaved) were used during dorsal hair removal. The skin was prepared for hair removal on the dorso-lateral skin (from neck to tail) by shaving with a mechanical shaver, and then hair removal cream (Nair) was placed on the skin for 30-60 seconds. Hair was removed completely by gently wiping the skin with cotton balls soaked in warm water and disinfected using 70% ethanol wipes and betadine 3 times.
After dorsal hair removal, mice were placed in a clean cage on the heating pad for 30 minutes or until recovery. […]
At day 14, the backs of the mice were photographed with a digital camera, to evaluate the darkening of skin color. […] In morphological observation (FIG. 1A and FIG. 1), hair growth area was determined as a percentage after photographing hair growth state on the backs of mice and observation was conducted after hair removal at day 0 and after 4-AP treatment (daily systemic) at day 14. […] The level of hair regrowth/pigmentation was quantified by the intensity of the darkness of the back skin in the same area. […]

For data set [2], the system named is C57BL/6 mice. The experiment in a line: Full thickness excisional splinted wound model: wound closure and histomorphometry. It is filed as in vivo. Conditions: for wound closure: daily systemic 4-AP. The source says:
The effect of 4-AP in promoting cutaneous wound healing and tissue regeneration was investigated using a full thickness excisional wound model (FIG. 3A). Excisional wounds (5 mm) were splinted with silicone rings to prevent wound contraction, in 10-wk-old male C57BL/6 mice, which were then randomized and treated with either saline or systemic 4-AP (dosage to correspond to human dosage) daily for 14 days. Wounds were monitored by digital imaging for morphometry, percentage of wound healing, and tissue regeneration on days 3, 5, 7, 9, 12 and 14 post wound (PWD) (when tissue was harvested).
Male C57BL/6 (10 week) mice were purchased from the Jackson Laboratory (Bar Harbor, ME USA). Mice were anesthetized by intraperitoneal injection of ketamine (60 mg/kg) and xylazine (4 mg/kg) body weight, and the dorsal skin hair was removed using mechanical shaver and then, applied the hair removal cream. Skin was disinfected using 70% ethanol and betadine for 3 times. The dorsal skin was folded and raised cranially and caudally at midline using index fingers and thumbs, and place the animal in a lateral position and two 5-mm wounds created in their dorsal skin using sterile biopsy punch. A 5-mm-diameter silicone ring was then placed and sutured around the each wound to restrict contraction. After wound creation and sutured silicone ring, wound site was photographed, and wound surface was covered with a Tegaderm (3M) sterile transparent dressing. After surgery, mice was administered SR Buprenorphine (0.05 mg/kg) as a post-operative analgesia. The mice were randomized into the following two groups: a control group (vehicle control), which received 100 μl of saline, and a 4-AP group. In total […]/mouse/daily 4-AP in 90-110 μl of saline intraperitoneally (IP) was administered until day 14 post wound. Digital imaging of the wound was used was determined for each wound healing by quantification of wound area based on digital pictures taken from day 0 to day 14 (days 0, 3, 5, 7, 9, 12 and 14) post-surgery (FIG. 3A). Wound areas were measured in pixel using ImageJ-1.53e software (National Institutes of Health, USA) and normalized/corrected each wound area with reference scale and wound healing expressed as percentage with respect to day 0 wound, using following formula.
At the day 14 wound skin sample were collected after mice were euthanized using CO2 and skin samples were excised, either flash frozen or fixed in a buffered 4% formaldehyde solution at 4° C., overnight for samples to be embedded in paraffin and the wound skin paraffin blocks were processed into serially cut into […] sections on a Microtome (Leica RM2235, Germany). The wound skin sections were used for morphometric analysis and immunofluorescence staining. […] sectioned wound skin samples of day 14 were sections were deparaffinised using xylene and ethyl alcohol and stained with hematoxylin and eosin (H&E). To evaluate the epidermis thickness, and wound induced hair follicle formation, four randomly fields of each H&E-stained sections were imaged under a light microscope (Olympus BX53, Olympus, Tokyo, Japan) at 1000 magnification. The values of each mice were averaged, and then groups were compared. To measure the wound induced hair follicles, similar to above procedure, the number of hair follicles at dermis were counted and then average value calculated for each group. To understand the collagen formation, maturation and deposition Masson's trichome analysis were performed as per manufacture instructions (Sigma-Aldrich, Catalog No.: HT15-1KT).

The test system of data set [3] is keratinocytes, Schwann cells and fibroblast. The experiment in a line: Cell viability MTT assay. It is filed as cell-based, human. Conditions: concentrations of 4-AP used in vitro; 24 hours. On the procedure:
The keratinocytes, Schwann cells and fibroblast were culture on 96-well plates, the wells were pre-coated with respective coating matrix in complete growth medium and incubated cells for 12-18 hours at 37° C. in 5% CO2 incubator. Cells were washed with PBS and added basal Schwann cells/fibroblast/keratinocytes medium to starve, then incubated for 4 hours at 37° C. with 5% CO2. After the incubation period, various concentrations of 4-AP (concentrations ranging from 1 to 10000 μM) in 100 μL containing respective medium's (complete keratinocytes, Schwann cells and fibroblast medium), cells were incubated either 24 hours at +37° C. and 5% CO2 incubator. After completion of incubation time, 10 μL of the MTT labeling reagent (final concentration 0.5 mg/ml) was added to each well and incubate at +37° C. for 4 hours in a humidified atmosphere. Then, 100 μL of the solubilization solution into each well and allow the plate to stand in the incubator overnight or until the formazan crystals had dissolved. […] The formazan absorbance was read using wavelength of 550 nm in a plate reader. The color of optical density (OD) is directly propositional to number of live cells. The percentage of live keratinocytes/Schwann cells/fibroblast cells was determined using the following formula. […]
A general note: Tetrazolium dyes change colour on reduction, which living cells bring about.

With `Nc1ccncc1` [4-AP, 4-aminopyridine], in the data set with C57BL/6 mice [1] (day 14, compared with saline treated mice), the “number of hair follicles (H&E transverse sections)” value is given as “increased”. Moreover, the hair regrowth result with C57BL/6 mice [1] (day 14 after hair removal, systemic ip 10-50 μg/daily) was “around 50%”. In the data set on C57BL/6 mice [2] (by day 14), the re-epithelialization of wound result is “completely re-epithelialized”. The wound closure in the data set on C57BL/6 mice [2] (day 3 post wound) was 22.35±0.30%; in the data set on C57BL/6 mice [2] (day 14 post wound) it was 98.24±0.10%. Moreover, the “collagen deposition in dermis (Masson's Trichrome)” value in the data set on C57BL/6 mice [2] (day 14, compared to saline) was “elevated collagen deposition”. In the data set with C57BL/6 mice [2] (day 14, vs saline-treated mice), the “fold increase in WIHN” value was found to be 1.8 fold. The same compound showed a thickness of newly formed epidermis (H&E) with C57BL/6 mice [2] (day 14 wound tissue) of 29.7 ± 1.3 µm. Further, the “mean number of hair follicles (wound-induced hair neogenesis)” value with C57BL/6 mice [2] (day 14 wound tissue, H&E) turned out to be 45. Also, the cell viability result in data set [3] is given as “not affected”.
